The source of these data is ChEMBL document CHEMBL6078669, “Stereoisomers of cannabidiols and their pharmacological activities - A potentially novel direction for cannabinoids” (Bioorg Med Chem, 2025).

For assay [1], the target named is T1, Cannabinoid receptor 2 (Homo sapiens, UniProt P34972). The assay is described as follows: Displacement of [3H]HU-243 from CB2 receptor (unknown origin) extracted from green monkey COS-7 cell membrane assessed as inhibition constant incubated for 90 mins. The class given is cell membranes.
For assay [2], the target named is T2, Cannabinoid receptor 1 (Rattus norvegicus, UniProt P20272). Nature of the assay: Displacement of [3H]HU-243 from Sabra rat brain synaptosome CB1 receptor assessed as inhibition constant incubated for 90 mins. The class given is subcellular.
For assay [3], the target named is T1, Cannabinoid receptor 2. The assay is described as follows: Displacement of [3H]CP-55,940 from human CB2 receptor extracted from HEK293 cell membrane assessed as inhibition constant incubated for 90 mins by liquid scintillation spectrophotometric analysis. The class given is cell membranes.
Assay [4] concerns the target T3, Cannabinoid receptor 1 (Homo sapiens, UniProt P21554). The assay is described as follows: Displacement of [3H]CP-55,940 from human CB1 receptor extracted from HEK293 cell membrane assessed as inhibition constant incubated for 90 mins by liquid scintillation spectrophotometric analysis. The class given is cell membranes. On the technique in general: In a radioligand displacement assay an active substance lowers the binding of a labelled ligand.

The species named for assay [5] is Homo sapiens. The assay is described as follows: Selectivity ratio of Ki for human CB1 receptor extracted from HEK293 cell membrane to Ki for human CB2 receptor extracted from HEK293 cell membrane.
Assay [6] concerns the target T4, Fatty-acid amide hydrolase 1 (Mus musculus, UniProt O08914).
T4 sequence (O08914 whole entry): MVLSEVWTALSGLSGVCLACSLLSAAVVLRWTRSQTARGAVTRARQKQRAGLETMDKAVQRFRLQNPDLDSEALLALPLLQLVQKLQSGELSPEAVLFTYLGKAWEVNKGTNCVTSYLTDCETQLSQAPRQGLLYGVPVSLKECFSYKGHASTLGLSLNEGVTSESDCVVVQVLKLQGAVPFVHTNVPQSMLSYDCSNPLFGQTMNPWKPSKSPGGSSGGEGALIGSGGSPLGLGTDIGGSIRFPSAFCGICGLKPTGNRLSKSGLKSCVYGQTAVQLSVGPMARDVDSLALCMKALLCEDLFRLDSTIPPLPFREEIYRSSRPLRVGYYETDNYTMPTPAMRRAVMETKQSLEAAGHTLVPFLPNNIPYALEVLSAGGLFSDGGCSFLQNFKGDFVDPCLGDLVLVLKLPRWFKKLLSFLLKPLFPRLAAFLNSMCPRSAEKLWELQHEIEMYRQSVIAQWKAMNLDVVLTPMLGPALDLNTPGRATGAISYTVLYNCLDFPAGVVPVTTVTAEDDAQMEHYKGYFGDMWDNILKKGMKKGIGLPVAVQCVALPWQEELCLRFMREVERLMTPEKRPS
The assay is described as follows: Inhibition of FAAH-mediated [14C]-AEA hydrolysis in mouse N18TG2 cell membrane incubated for 30 mins by scintillation counting. It counts as cell membranes.

A short description of assay [7]: Inhibition of [14C]-arachidonoylethanolamide uptake in rat RBL-2H3 cells assessed as increase in AEA level incubated for 5 mins by scintillation counting. The class given is functional, cell-based. The following applies: RBL-2H3, 5 min.
Assay [8] deals with Transient receptor potential cation channel subfamily V member 1 (Homo sapiens, UniProt Q8NER1). Nature of the assay: Agonist activity at human TRPV1 receptor expressed in HEK293 cells assessed as effect on [Ca2+]i preincubated with capsazepine for 30 mins followed by compound addition by Fluo-3 probe based fluorescence analysis. The class given is cell-based.
Assay [9] deals with T1, Cannabinoid receptor 2. The assay is described as follows: Binding affinity to CB2 receptor (unknown origin) assessed as inhibition constant.
The target in assay [10] is T3, Cannabinoid receptor 1. Nature of the assay: Binding affinity to CB1 receptor (unknown origin) assessed as inhibition constant.
Assay [11] is described as follows: Selectivity ratio of Ki for CB1 receptor (unknown origin) to Ki for CB2 receptor (unknown origin).
In assay [12] the target is T2, Cannabinoid receptor 1. The assay is described as follows: Displacement of [3H]HU-243 from Sabra rat brain synaptosome CB1 receptor assessed as inhibition constant. The class given is subcellular.
A short description of assay [13]: Selectivity index, ratio of Ki for Sabra rat brain synaptosome CB1 receptor to Ki for CB2 receptor (unknown origin) extracted from green monkey COS-7 cells.
Assay [14] in a line: Selectivity index, ratio of Ki for Sabra rat brain synaptosome CB1 receptor to Ki for human CB2 receptor extracted from CHO cell membrane.
Assay [15] has as its target T2, Cannabinoid receptor 1. Nature of the assay: Displacement of [3H]CP-55,940 from Sabra rat brain synaptosome CB1 receptor assessed as inhibition constant incubated for 90 mins. It counts as subcellular.
Assay [16] concerns the target T1, Cannabinoid receptor 2. Nature of the assay: Displacement of [3H]CP-55,940 from human CB2 receptor extracted from CHO cell membrane assessed as inhibition constant incubated for 90 mins. The class given is cell membranes.
The target in assay [17] is T1, Cannabinoid receptor 2. The assay is described as follows: Agonist activity at human CB2 receptor expressed in HEK293T cells co-transfected with pCRE-Luc plasmid preincubated with compound for 30 mins followed by forskolin addition and measured after 6 hrs by Dual-luciferase assay. The class given is functional, cell-based.
Assay [18] addresses T3, Cannabinoid receptor 1. Nature of the assay: Antagonist activity at human CB1 receptor expressed in HEK293T cells co-transfected with pCRE-Luc plasmid preincubated with compound for 30 mins followed by WIN55,212 addition and measured after 6 hrs by Dual-luciferase assay. The class given is functional, cell-based.

Values joined by “and” are separate entries in the source; they are usually repeats but may differ in a detail not shown here. Identical values can stand only once.

T2 sequence (P20272 whole entry): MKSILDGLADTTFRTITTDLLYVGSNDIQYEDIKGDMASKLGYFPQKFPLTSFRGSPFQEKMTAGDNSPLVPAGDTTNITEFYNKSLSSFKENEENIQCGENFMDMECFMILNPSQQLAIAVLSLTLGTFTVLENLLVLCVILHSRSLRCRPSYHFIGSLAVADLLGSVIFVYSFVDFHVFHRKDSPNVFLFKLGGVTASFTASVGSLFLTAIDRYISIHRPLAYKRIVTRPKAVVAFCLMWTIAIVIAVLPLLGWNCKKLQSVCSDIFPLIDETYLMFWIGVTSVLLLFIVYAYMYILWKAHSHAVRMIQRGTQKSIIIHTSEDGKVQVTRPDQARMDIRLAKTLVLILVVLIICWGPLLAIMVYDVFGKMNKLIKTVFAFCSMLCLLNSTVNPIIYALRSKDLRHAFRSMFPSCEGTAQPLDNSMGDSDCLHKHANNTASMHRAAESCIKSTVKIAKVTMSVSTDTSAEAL
T1 sequence (P34972 whole entry): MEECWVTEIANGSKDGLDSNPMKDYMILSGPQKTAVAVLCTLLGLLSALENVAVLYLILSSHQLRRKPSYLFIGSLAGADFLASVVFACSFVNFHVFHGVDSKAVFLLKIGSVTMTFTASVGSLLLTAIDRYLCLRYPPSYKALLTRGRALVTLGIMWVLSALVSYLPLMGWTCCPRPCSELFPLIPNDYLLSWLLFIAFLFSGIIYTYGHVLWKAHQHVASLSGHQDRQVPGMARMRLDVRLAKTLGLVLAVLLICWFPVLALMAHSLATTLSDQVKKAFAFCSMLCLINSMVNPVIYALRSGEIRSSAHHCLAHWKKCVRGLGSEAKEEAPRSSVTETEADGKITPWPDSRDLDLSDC
T3 sequence (P21554 whole entry): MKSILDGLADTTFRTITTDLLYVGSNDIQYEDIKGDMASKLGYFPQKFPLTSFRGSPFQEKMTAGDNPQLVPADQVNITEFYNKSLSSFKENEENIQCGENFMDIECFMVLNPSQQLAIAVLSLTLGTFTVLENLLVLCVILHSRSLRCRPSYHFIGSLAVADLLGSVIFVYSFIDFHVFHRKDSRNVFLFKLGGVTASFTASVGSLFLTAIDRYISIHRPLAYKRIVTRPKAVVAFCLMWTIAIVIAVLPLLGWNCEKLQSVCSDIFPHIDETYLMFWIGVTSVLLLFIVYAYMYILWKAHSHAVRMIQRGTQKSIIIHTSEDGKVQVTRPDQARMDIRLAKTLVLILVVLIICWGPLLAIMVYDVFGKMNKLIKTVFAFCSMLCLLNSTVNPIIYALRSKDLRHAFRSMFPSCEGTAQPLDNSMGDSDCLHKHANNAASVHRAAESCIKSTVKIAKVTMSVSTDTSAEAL
Transient receptor potential cation channel subfamily V member 1, sequence (Q8NER1 whole entry): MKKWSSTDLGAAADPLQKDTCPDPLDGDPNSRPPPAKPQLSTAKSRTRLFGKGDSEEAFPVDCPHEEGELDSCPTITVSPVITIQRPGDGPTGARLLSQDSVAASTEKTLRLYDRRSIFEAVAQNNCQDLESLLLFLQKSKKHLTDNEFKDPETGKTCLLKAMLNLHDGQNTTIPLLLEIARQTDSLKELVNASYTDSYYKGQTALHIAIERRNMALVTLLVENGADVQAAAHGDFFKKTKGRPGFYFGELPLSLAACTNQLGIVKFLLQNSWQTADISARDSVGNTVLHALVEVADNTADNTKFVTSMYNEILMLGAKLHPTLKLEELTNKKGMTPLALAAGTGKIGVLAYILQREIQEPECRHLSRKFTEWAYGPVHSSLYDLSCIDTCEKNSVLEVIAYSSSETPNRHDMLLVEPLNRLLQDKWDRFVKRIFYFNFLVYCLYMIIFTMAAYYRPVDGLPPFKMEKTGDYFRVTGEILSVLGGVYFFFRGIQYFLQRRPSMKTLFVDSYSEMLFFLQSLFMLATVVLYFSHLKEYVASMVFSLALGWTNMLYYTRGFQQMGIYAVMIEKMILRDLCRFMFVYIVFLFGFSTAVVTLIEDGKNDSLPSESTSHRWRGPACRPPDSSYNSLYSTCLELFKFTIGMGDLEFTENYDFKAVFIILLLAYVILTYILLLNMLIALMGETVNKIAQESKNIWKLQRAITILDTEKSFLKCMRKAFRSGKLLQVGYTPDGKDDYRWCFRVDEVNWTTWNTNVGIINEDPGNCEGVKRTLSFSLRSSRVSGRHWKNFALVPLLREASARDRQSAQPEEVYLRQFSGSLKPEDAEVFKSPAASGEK

The Ki is the equilibrium dissociation constant of an inhibitor or competing ligand from its target. Regarding `C=C(C)[C@@H]1CCC(C)=C[C@H]1c1c(OC)cc(C(C)(C)CCCCCC)cc1OC`, the Ki in assay [1] and in assay [2] was above 1000 nM each time.

As for `C=C(C)[C@H]1CCC(C)=C[C@@H]1c1c(O)cc(CCC)c(C(=O)OC)c1O`, the Ki in [3] came out at 28 nM; in assay [4], 345 nM. Besides, the Ratio Ki in assay [5] came out at 12.3.

For orientation: IC50 means the concentration that gives 50% inhibition. As a reminder, the EC50 is the midpoint of the concentration-response curve. In the case of `C=C(C)[C@H]1CCC(C)=C[C@@H]1c1c(O)cc(CCCCC)cc1O`, the IC50 in assay [6] came to 63.5 µM; in assay [7] it was 17 µM. Also, in [8], the EC50 turned out to be 3.2 µM.

On to `COc1cc(C(C)(C)CCCCCCN=C=S)cc(OC)c1[C@@H]1C=C(CO)[C@@H]2C[C@H]1C2(C)C`, for which the Ki was 121 nM in assay [9] and above 1000 nM in assay [10].

Consider `C=C(C)[C@H]1CCC(C(=O)O)=C[C@@H]1c1c(O)cc(CCCCC)cc1O`, for which the Ki in assay [9] was found to be 313 nM; in assay [10] it was 13.2 nM. Further, the Ratio Ki in [11] is 0.04.

As to `C=C(C)[C@@H]1CCC(CO)=C[C@H]1c1c(O)cc(CCCCC)cc1O`, the Ki in [1] and in assay [2] was above 1000 nM each time.

Consider `C=C(C)[C@@H]1CCC(C)=C[C@H]1c1c(O)cc(CCCCC)c(C(=O)OC)c1O`, for which the values for the Ki in [3] and in assay [4] were 0.8 nM and 3.1 nM, respectively. Also, in [5], the Ratio Ki is 3.9.

Regarding `C=C(C)[C@@H]1CCC(C)=C[C@H]1c1c(O)cc(C(C)(C)CCCCCC)cc1O`, the Ki was 1800 nM in assay [1] and above 10000 nM in assay [2]. Further, the IC50 in assay [7] was 14 µM.

Consider `C=C(C)[C@H]1CCC(CO)=C[C@@H]1c1c(O)cc(C(C)(C)CCCCCC)cc1O`, for which the Ki in assay [1] turned out to be 44 nM; in [2], 2.5 nM. Further, the IC50 in assay [7] is 7 µM.

`C=C(C)[C@H]1CCC(C)=C[C@@H]1c1c(O)cc(CCCCC)c(C(=O)OCCO)c1O`: the Ki in [4] was found to be 259 nM.

Consider `C=C(C)[C@H]1CCC(C(=O)O)=C[C@@H]1c1c(O)cc(C(C)(C)CCCCCC)cc1O`, for which the Ki in assay [9] worked out at 155 nM; in assay [10], 5.8 nM. In assay [11], the Ratio Ki came to 0.03.

Regarding `COc1cc(C(C)(C)CCCCCCN=C=S)cc(OC)c1[C@H]1C=C(CO)[C@H]2C[C@@H]1C2(C)C`, the Ki in assay [9] came out at 13.1 nM; in assay [10], 2670 nM. The Ratio Ki in [11] stood at 203.

As to `C=C(C)[C@@H]1CCC(C)=C[C@H]1c1c(O)cc(CCC)cc1O` [CANNABIDIVARIN], the Ki in [10] is above 1000 nM.

Regarding `CCCCCCC(C)(C)c1cc(O)c(-c2c(CO)cccc2C(C)C)c(OC)c1`, the inhibitory constant (Ki) in assay [9] was 0.64 nM and 0.28 nM; in [10] it was above 1000 nM. The Ratio Ki in assay [11] was 17.

Regarding `C=C(C)[C@@H]1CCC(C(=O)O)=C[C@H]1c1c(O)cc(C(C)(C)CCCCCC)cc1O`, the Ki in [9] and in [10] was above 1000 nM throughout.

As to `CCCCCCC(C)(C)c1cc(OC)c([C@H]2C=C(CO)[C@H]3C[C@@H]2C3(C)C)c(OC)c1`, the Ki in assay [12] is above 10 µM.

As for `C=C(C)[C@@H]1CCC(CO)=C[C@H]1c1c(O)cc(C(C)(C)CCCCCC)cc1O`, the Ki in assay [1] is 671 nM; in assay [2] it was at least 4000 nM. Also, the IC50 in assay [7] was 12.5 µM.

With `C=C(C)[C@H]1CCC(CO)=C[C@@H]1c1c(O)cc(CCCCC)cc1O`, the Ki in [1] was determined as 101 nM; in assay [2], 5.3 nM. Also, in assay [13], the Ratio Ki was 0.05.

With `C=C(C)[C@H]1CCC(C)=C[C@@H]1c1c(OC)cc(C(C)(C)CCCCCC)cc1OC`, the Ki in assay [1] and in assay [2] was above 1000 nM throughout.

Consider `C=C(C)[C@@H]1CCC(C(=O)O)=C[C@H]1c1c(O)cc(CCCCC)cc1O`, for which the Ki in assay [1] and in assay [2] was above 1000 nM each time.

For the compound `CCCCCc1cc(O)c([C@H]2C=C(CO)CC[C@@H]2C(C)C)c(O)c1`, the Ratio Ki in assay [14] was 6.3. The results for the Ki in [15] and in assay [16] were 76.7 nM and 12.1 nM, respectively.

`C=C(C)[C@H]1CCC(C)=C[C@@H]1c1c(O)cc(CCCCC)c(C(=O)OCC(O)CCC)c1O` (stereo partly specified): in assay [17], the EC50 was 90 nM. Further, the half-maximal inhibitory concentration (IC50) in assay [18] was found to be 210 nM.

For `C=C(C)[C@H]1CCC(C)=C[C@@H]1c1c(O)cc(C(C)(C)CCCCCC)cc1O`, the Ki in assay [1] was found to be 211 nM; in [2], 17.4 nM. The IC50 in assay [7] was found to be 10 µM.

With `C=C(C)C1CCC(C)=CC1O` (stereo unspecified), the Ki in [3] was 375 nM; in [4], above 1000 nM.

In the case of `CCCCCc1cc(O)c([C@@H]2C=C(CO)CC[C@H]2C(C)C)c(O)c1`, the Ki in assay [15] and in [16] was above 1000 nM throughout.

Regarding `CCCCCCC(C)(C)c1cc(OC)c([C@@H]2C=C(CO)[C@@H]3C[C@H]2C3(C)C)c(OC)c1` [ONTERNABEZ], the Ki in [10] was above 1000 nM.
